How the values were obtained:
Carbonic anhydrase 9 = Carbonic anhydrase 9 (Homo sapiens, UniProt Q16790)
[1] = target: Carbonic anhydrase 5A, mitochondrial (Homo sapiens, UniProt P35218)
Carbonic anhydrase 2 = Carbonic anhydrase 2 (Homo sapiens, UniProt P00918)
Carbonic anhydrase 4 = Carbonic anhydrase 4 (Homo sapiens, UniProt P22748)
Carbonic anhydrase 1 = Carbonic anhydrase 1 (Homo sapiens, UniProt P00915)
Chain of Carbonic anhydrase 1 (P00915 whole entry): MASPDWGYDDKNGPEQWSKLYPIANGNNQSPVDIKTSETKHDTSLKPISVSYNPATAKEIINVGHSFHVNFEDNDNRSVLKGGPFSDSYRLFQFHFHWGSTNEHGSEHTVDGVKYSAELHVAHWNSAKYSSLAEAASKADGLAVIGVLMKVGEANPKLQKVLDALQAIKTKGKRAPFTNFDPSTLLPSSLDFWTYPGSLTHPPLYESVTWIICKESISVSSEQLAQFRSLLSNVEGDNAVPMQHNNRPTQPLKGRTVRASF

Chain of Carbonic anhydrase 5A, mitochondrial (P35218 whole entry): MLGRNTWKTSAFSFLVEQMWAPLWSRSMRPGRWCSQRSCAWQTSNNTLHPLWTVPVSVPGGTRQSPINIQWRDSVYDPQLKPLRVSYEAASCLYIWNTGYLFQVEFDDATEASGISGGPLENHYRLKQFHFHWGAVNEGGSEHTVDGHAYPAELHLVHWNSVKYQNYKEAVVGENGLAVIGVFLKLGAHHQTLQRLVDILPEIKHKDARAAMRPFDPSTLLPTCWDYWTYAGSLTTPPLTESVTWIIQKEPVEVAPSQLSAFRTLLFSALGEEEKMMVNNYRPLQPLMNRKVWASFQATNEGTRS
Chain of Carbonic anhydrase 4 (P22748 whole entry): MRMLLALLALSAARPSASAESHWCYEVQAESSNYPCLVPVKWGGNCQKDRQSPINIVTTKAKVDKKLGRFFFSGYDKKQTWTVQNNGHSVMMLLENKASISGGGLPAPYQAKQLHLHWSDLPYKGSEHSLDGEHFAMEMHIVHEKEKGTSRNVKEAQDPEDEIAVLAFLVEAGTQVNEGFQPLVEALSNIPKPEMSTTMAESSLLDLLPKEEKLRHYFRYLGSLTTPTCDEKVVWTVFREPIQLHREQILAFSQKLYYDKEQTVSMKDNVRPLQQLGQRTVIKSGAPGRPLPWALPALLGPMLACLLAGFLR

SMILES | Ki (Carbonic anhydrase 9) | Ki [1] | Ki (Carbonic anhydrase 2) | Ki (Carbonic anhydrase 4) | Ki (Carbonic anhydrase 1)
O=S(=O)(O)O [SULFURIC ACID] | 154 mM | 680 mM |  |  | 
NS(=O)(=O)O [SULFAMATE] | 0.0092 mM | 0.12 mM |  |  | 
[O-][I+3]([O-])([O-])O [PERIODATE] | 30.3 mM | 15.7 mM | 75.8 mM | 226 mM | 14.6 mM
[O-][Cl+3]([O-])([O-])O [PERCHLORATE] | 11.6 mM | 13.6 mM |  | 767 mM | 0.69 mM
[O-][Br+2]([O-])O [BROMATE] | 274 mM | 11.3 mM | 12 mM | 128 mM | 4.79 mM
O=C(O)O [BICARBONATE] | 0.0086 mM | 95 mM |  |  | 
O=[N+]([O-])O [NITRIC ACID] |  | 16 mM |  |  | 
[O-][Cl+2]([O-])O [CHLORATE] | 147 mM | 7.12 mM | 0.85 mM | 64.9 mM | 0.54 mM

— ChEMBL document CHEMBL1144269, “Carbonic anhydrase inhibitors. Inhibition of isozymes I, II, IV, V, and IX with anions isosteric and isoelectronic with sulfate, nitrate, and carbonate” (Bioorg Med Chem Lett, 2005)
